Measurements as given in patent publication US20110182850A1, “ORGANIC COMPOUNDS AND THEIR USES” (priority 2009, published 2011).

Molecular target: T1, HCV NS3-4A serine protease (full-length NS3-4A protein, genotype 1a, strain HCV-1) (Hepatitis C virus genotype 1a, UniProt P26664)
T1 construct: using the full-length NS3-4A protein (genotype 1a, strain HCV-1)
Experiment: HCV NS3-4A protease assay
Type: biochemical
Settings: Protease IC50
Protocol: The inhibitory activity of certain compounds of Table A against HCV NS3-4A serine protease is determined in a homogenous assay using the full-length NS3-4A protein (genotype 1a, strain HCV-1) and a commercially available internally-quenched fluorogenic peptide substrate as described by Taliani, M., et al. 1996 Anal. Biochem. 240:60-67, which is incorporated by reference in its entirety.

T1 sequence (P26664 1658-1711): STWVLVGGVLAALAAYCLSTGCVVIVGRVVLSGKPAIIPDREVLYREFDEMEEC
T1 sequence (P26664 1027-1657): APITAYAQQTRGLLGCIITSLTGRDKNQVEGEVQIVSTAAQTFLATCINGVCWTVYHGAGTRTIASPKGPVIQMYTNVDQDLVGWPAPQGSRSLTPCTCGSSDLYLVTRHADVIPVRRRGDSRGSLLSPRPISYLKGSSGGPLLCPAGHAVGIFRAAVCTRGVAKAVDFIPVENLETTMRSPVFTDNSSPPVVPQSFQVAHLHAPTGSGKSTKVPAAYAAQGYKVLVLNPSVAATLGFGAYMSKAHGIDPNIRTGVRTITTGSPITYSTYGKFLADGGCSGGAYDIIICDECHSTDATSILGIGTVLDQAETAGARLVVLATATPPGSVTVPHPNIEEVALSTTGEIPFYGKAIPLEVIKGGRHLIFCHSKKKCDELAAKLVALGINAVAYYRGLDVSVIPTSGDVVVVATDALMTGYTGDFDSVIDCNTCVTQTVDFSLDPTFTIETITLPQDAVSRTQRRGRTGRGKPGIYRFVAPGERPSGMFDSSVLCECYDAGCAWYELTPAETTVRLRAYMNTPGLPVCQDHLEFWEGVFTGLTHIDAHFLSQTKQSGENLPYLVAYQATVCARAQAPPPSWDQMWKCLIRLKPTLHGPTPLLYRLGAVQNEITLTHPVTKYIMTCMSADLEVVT

SMILES | IC50 [nM]
C=C[C@@H]1C[C@]1(NC(=O)[C@@H]1C[C@@]2(CN1C(=O)C(NC(=O)[C@@H](NC(=O)c1cnccn1)C1CCCCC1)C(C)(C)C)C(C)(C)C21CCC1)C(=O)NS(=O)(=O)C1CC1 (stereo partly drawn) [Compound 87, (5R,8S)-7-[2-({(2S)-2-cyclohexyl-2-[(pyrazin-2-ylcarbonyl)amino]acetyl}amino)-3,3-dimethylbutanoyl]-N-{(1R,2S)-1-[(cyclopropylsulfonyl)carba-moyl]-2-vinylcyclopropyl}-10,10-dimethyl-7-azadispiro[3.0.4.1]decane-8-carboxamide] | 2.5
C=C[C@@H]1C[C@]1(NC(=O)[C@@H]1C[C@@]2(CN1C(=O)[C@@H](NC(=O)[C@@H](NC(=O)c1cnccn1)C1CCCCC1)C(C)(C)C)C(C)(C)C21CCC1)C(=O)NS(=O)(=O)C1CC1 [Compound 88, (5R,8S)-7-[(2S)-2-({(2S)-2-cyclohexyl-2-[(pyrazin-2-ylcarbonyl)amino]acetyl}amino)-3,3-dimethylbutanoyl]-N-{(1R,2S)-1-[(cyclopropylsulfonyl)carba-moyl]-2-vinylcyclopropyl}-10,10-dimethyl-7-azadispiro[3.0.4.1]decane-8-carboxamide] | 0.8
C=C[C@@H]1C[C@]1(NC(=O)[C@@H]1C[C@@]2(CN1C(=O)[C@@H](NC(=O)[C@@H](NC(=O)C(C)(C)N1CCCC1)C1CCCCC1)C(C)(C)C)C(C)(C)C21CCC1)C(=O)NS(=O)(=O)C1CC1 [Compound 89, (5R,8S)-7-[(2S)-2-({(2S)-2-cyclohexyl-2-[(2-methyl-2-pyrrolidin-1-ylpropanoyl)amino]acetyl}amino)-3,3-dimethylbutanoyl]-N-{(1R,2S)-1-[(cyclopropylsulfonyl)carba-moyl]-2-vinylcyclopropyl}-10,10-dimethyl-7-azadispiro[3.0.4.1]decane-8-carboxamide] | 0.8
C=C[C@@H]1C[C@]1(NC(=O)[C@@H]1C[C@@]2(CN1C(=O)[C@@H](NC(=O)[C@@H](NC(=O)[C@@H]1CCCN(CC)C1)C1CCCCC1)C(C)(C)C)C(C)(C)C21CCC1)C(=O)NS(=O)(=O)C1CC1 [Compound 90, (5R,8S)-7-[(2S)-2-{[(2S)-2-cyclohexyl-2-({[(3R)-1-ethylpiperidin-3-yl]carbonyl}amino)acetyl]amino}-3,3-dimethylbutanoyl]-N-{(1R,2S)-1-[(cyclopropylsulfonyl)carba-moyl]-2-vinylcyclopropyl}-10,10-dimethyl-7-azadispiro[3.0.4.1]decane-8-carboxamide] | 0.7
CC[C@@H]1C[C@]1(NC(=O)[C@@H]1C[C@@]2(CN1C(=O)[C@@H](NC(=O)[C@@H](NC(=O)[C@@H]1CCCCN1C(C)C)C(C)(C)C)C(C)(C)C)C(C)(C)C21CCC1)C(=O)NS(=O)(=O)C1CC1 [Compound 91, (5R,8S)-N-{(1R,2R)-1-[(cyclopropylsulfonyl)carba-moyl]-2-ethylcyclopropyl}-7-[(2S)-2-{[(2S)-2-({[(2S)-1-isopropylpiperidin-2-yl]carbonyl}amino)-3,3-dimethylbutanoyl]amino}-3,3-dimethylbutanoyl]-10,10-dimethyl-7-azadispiro[3.0.4.1]decane-8-carboxamide] | 3.5
C=C[C@@H]1C[C@]1(NC(=O)[C@@H]1C[C@@]2(CN1C(=O)[C@@H](NC(=O)[C@@H](NC(=O)[C@@H]1CCCCN1C(C)C)C1CCCCC1)C(C)(C)C)C(C)(C)C21CCC1)C(=O)NS(=O)(=O)C1CC1 [Compound 92, (5R,8S)-7-[(2S)-2-{[(2S)-2-cyclohexyl-2-({[(2S)-1-isopropylpiperidin-2-yl]carbonyl}amino)acetyl]amino}-3,3-dimethylbutanoyl]-N-{(1R,2S)-1-[(cyclopropylsulfonyl)carba-moyl]-2-vinylcyclopropyl}-10,10-dimethyl-7-azadispiro[3.0.4.1]decane-8-carboxamide] | 0.4
C=C[C@@H]1C[C@]1(NC(=O)[C@@H]1C[C@@]2(CN1C(=O)[C@@H](NC(=O)[C@@H](NC(=O)C1CCCCN1C(C)C)C(C)(C)C)C(C)(C)C)C(C)(C)C21CCC1)C(=O)NS(=O)(=O)C(C)(C)C (stereo partly drawn) [Compound 93, (5R,8S)-N-{(1R,2S)-1-[(tert-butylsulfonyl)carbamoyl]-2-vinylcyclopropyl}-7-[(2S)-2-{[(2S)-2-{[(1-isopropylpiperidin-2-yl)carbonyl]amino}-3,3-dimethylbutanoyl]amino}-3,3-dimethylbutanoyl]-10,10-dimethyl-7-azadispiro[3.0.4.1]decane-8-carboxamide] | 8
C=C[C@@H]1C[C@]1(NC(=O)[C@@H]1C[C@@]2(CN1C(=O)[C@@H](NC(=O)[C@@H](NC(=O)C1CCCCN1C(C)C)C(C)(C)C)C(C)(C)C)C(C)(C)C21CCC1)C(=O)NS(C)(=O)=O (stereo partly drawn) [Compound 94, (5R,8S)-7-[(2S)-2-{[(2S)-2-{[(1-isopropylpiperidin-2-yl)carbonyl]amino}-3,3-dimethylbutanoyl]amino}-3,3-dimethylbutanoyl]-10,10-dimethyl-N-{(1R,2S)-1-[(methylsulfonyl)carbamoyl]-2-vinylcyclopropyl}-7-azadispiro[3.0.4.1]decane-8-carboxamide] | 10
C=C[C@@H]1C[C@]1(NC(=O)[C@@H]1C[C@@]2(CN1C(=O)[C@@H](NC(=O)[C@@H](NC(=O)c1cccnc1)C1CCCCC1)C(C)(C)C)C(C)(C)C21CCC1)C(=O)NS(=O)(=O)C1CC1 [Compound 95, (5R,8S)-7-[(2S)-2-({(2S)-2-cyclohexyl-2-[(pyridin-3-ylcarbonyl)amino]acetyl}amino)-3,3-dimethylbutanoyl]-N-{(1R,2S)-1-[(cyclopropylsulfonyl)carba-moyl]-2-vinylcyclopropyl}-10,10-dimethyl-7-azadispiro[3.0.4.1]decane-8-carboxamide] | 0.9
C=C[C@@H]1C[C@]1(NC(=O)[C@@H]1C[C@@]2(CN1C(=O)[C@@H](NC(=O)[C@@H](NC(=O)c1ccncc1)C1CCCCC1)C(C)(C)C)C(C)(C)C21CCC1)C(=O)NS(=O)(=O)C1CC1 [Compound 96, (5R,8S)-7-[(2S)-2-{[(2S)-2-cyclohexyl-2-(isonicotinoylamino)acetyl]amino}-3,3-dimethylbutanoyl]-N-{(1R,2S)-1-[(cyclopropylsulfonyl)carba-moyl]-2-vinylcyclopropyl}-10,10-dimethyl-7-azadispiro[3.0.4.1]decane-8-carboxamide] | 1
C=C[C@@H]1C[C@]1(NC(=O)[C@@H]1C[C@@]2(CN1C(=O)[C@@H](NC(=O)[C@@H](NC(=O)c1ccccn1)C1CCCCC1)C(C)(C)C)C(C)(C)C21CCC1)C(=O)NS(=O)(=O)C1CC1 [Compound 97, (5R,8S)-7-[(2S)-2-({(2S)-2-cyclohexyl-2-[(pyridin-2-ylcarbonyl)amino]acetyl}amino)-3,3-dimethylbutanoyl]-N-{(1R,2S)-1-[(cyclopropylsulfonyl)carba-moyl]-2-vinylcyclopropyl}-10,10-dimethyl-7-azadispiro[3.0.4.1]decane-8-carboxamide] | 1
C=C[C@@H]1C[C@]1(NC(=O)[C@@H]1C[C@@]2(CN1C(=O)[C@@H](NC(=O)[C@@H](NC(=O)c1ccccc1)C1CCCCC1)C(C)(C)C)C(C)(C)C21CCC1)C(=O)NS(=O)(=O)C1CC1 [Compound 98, (5R,8S)-7-[(2S)-2-{[(2S)-2-(benzoylamino)-2-cyclohexylacetyl]amino}-3,3-dimethylbutanoyl]-N-{(1R,2S)-1-[(cyclopropylsulfonyl)carba-moyl]-2-vinylcyclopropyl}-10,10-dimethyl-7-azadispiro[3.0.4.1]decane-8-carboxamide] | 1.5
C=C[C@@H]1C[C@]1(NC(=O)[C@@H]1C[C@@]2(CN1C(=O)[C@@H](NC(=O)[C@@H](NC(C)=O)C1CCCCC1)C(C)(C)C)C(C)(C)C21CCC1)C(=O)NS(=O)(=O)C1CC1 [Compound 99, (5R,8S)-7-[(2S)-2-{[(2S)-2-acetamido-2-cyclohexylacetyl]amino}-3,3-dimethylbutanoyl]-N-{(1R,2S)-1-[(cyclopropylsulfonyl)carba-moyl]-2-vinylcyclopropyl}-10,10-dimethyl-7-azadispiro[3.0.4.1]decane-8-carboxamide] | 6
C=C[C@@H]1C[C@]1(NC(=O)[C@@H]1C[C@@]2(CN1C(=O)[C@@H](NC(=O)[C@@H](NC(=O)c1cnccn1)C(C)(C)C)C(C)(C)C)C(C)(C)C21CCC1)C(=O)NS(=O)(=O)C1CC1 [Compound 100, (5R,8S)-N-{(1R,2S)-1-[(cyclopropylsulfonyl)carba-moyl]-2-vinylcyclopropyl}-7-[(2S)-2-({(2S)-3,3-dimethyl-2-[(pyrazin-2-ylcarbonyl)amino]butanoyl}amino)-3,3-dimethylbutanoyl]-10,10-dimethyl-7-azadispiro[3.0.4.1]decane-8-carboxamide] | 4
C=C[C@H]1C[C@@]1(NC(=O)[C@@H]1C[C@@]2(CN1C(=O)[C@@H](NC(=O)[C@@H](NC(=O)C(C)(C)N1CCOCC1)C1CCCCC1)C(C)(C)C)C(C)(C)C21CCC1)C(=O)NS(=O)(=O)C1CC1 [Compound 101, (5R,8S)-7-[(2S)-2-({cyclohexyl[(2-methyl-2-morpholin-4-ylpropanoyl)amino]acetyl}amino)-3,3-dimethylbutanoyl]-N-{(1R,2S)-1-[(cyclopropylsulfonyl)carba-moyl]-2-vinylcyclopropyl}-10,10-dimethyl-7-azadispiro[3.0.4.1]decane-8-carboxamide] | 1
C=C[C@H]1C[C@@]1(NC(=O)[C@@H]1C[C@@]2(CN1C(=O)[C@@H](NC(=O)[C@@H](NC(=O)C(C)(C)N1CCN(C(C)(C)C)CC1)C1CCCCC1)C(C)(C)C)C(C)(C)C21CCC1)C(=O)NS(=O)(=O)C1CC1 [Compound 102, (5R,8S)-7-[(2S)-2-{[{[2-(4-tert-butylpiperazin-1-yl)-2-methylpropanoyl]amino}(cyclo-hexyl)acetyl]amino}-3,3-dimethylbutanoyl]-N-{(1R,2S)-1-[(cyclopropylsulfonyl)carba-moyl]-2-vinylcyclopropyl}-10,10-dimethyl-7-azadispiro[3.0.4.1]decane-8-carboxamide] | 1
